Data published in patent publication US9012166B2, “Method for assaying histone methylation enzyme activity” (Kyushu Institute of Technology, priority 2010, dated 2015).
pIC50: −log10 of the molar value. Read-outs that look alike come from different tables or passages of the source.

Molecular target: T1, Set9 (His-Set9, His-Set7/9) (Homo sapiens, UniProt Q8WTS6)
T1 sequence (Q8WTS6 1-366): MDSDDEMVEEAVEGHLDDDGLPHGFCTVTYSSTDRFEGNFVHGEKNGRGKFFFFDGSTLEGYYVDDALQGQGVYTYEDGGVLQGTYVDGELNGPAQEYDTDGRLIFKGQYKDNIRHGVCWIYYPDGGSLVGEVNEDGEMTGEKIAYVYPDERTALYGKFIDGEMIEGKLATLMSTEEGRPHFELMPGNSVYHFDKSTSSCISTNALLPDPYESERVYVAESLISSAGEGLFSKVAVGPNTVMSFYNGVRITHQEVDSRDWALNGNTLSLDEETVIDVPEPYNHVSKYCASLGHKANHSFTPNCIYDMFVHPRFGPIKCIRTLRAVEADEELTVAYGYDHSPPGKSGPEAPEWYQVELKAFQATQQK
Test: Assay for measuring histone methyltransferase activity using peptidyl MCA, inhibitor evaluation with Set9
Format: biochemical
Description: When Set9 was adopted as a histone methyltransferase, the following method was used. 10 μL of 2×HMT buffer (100 mM Tris-HCl (pH 8.5), 20 mM MgCl2, 40 mM KCl, 20 mM 2-mercaptoethanol, 500 mM sucrose), 0.4 μL of a BSA solution (150 μg/mL), 4.5 μL of His-Set9 (0, 2.25 μg/μL), 1 μL of gliotoxin (any of various concentrations) and 0.1 μL of distilled water were mixed and then incubated at room temperature for 1 hour. Then, 2 μL of SAM (10 mM) and 2 μL of a peptidyl MCA (Ac-p53 (369-372)-MCA) solution (0.6 mM) were added thereto, which was then incubated at 37° C. for 1 hour. Thereafter, 30 μL of a trypsin solution (20 mg/mL) was added thereto, followed by incubation at 37° C. for 15 minutes. Then, the fluorescence intensity of the solution was measured at an excitation wavelength (λex) of 390 nm and a fluorescence wavelength (λem) of 460 nm. The final concentration of His-Set9 during the measurement of fluorescence intensity was 0.5 μg/μL. […]
The rate of the inhibition of methylation by gliotoxin was calculated from the results in the left panel and the middle panel of FIG. 18. Specifically, the value (%) was calculated which was obtained by dividing “a value obtained by subtracting “the fluorescence intensity of AMC when peptidase was added but gliotoxin was not added” from “the fluorescence intensity of AMC when both peptidase and gliotoxin were added”” by “a value obtained by subtracting “the fluorescence intensity of AMC when peptidase was added but gliotoxin was not added” from “the fluorescence intensity of AMC when no peptidase or gliotoxin was added”” and multiplying the resultant value by 100. […]
When His-Set7/9 was adopted as a histone methyltransferase, the following method was used. […] Then, the fluorescence intensity of the solution was measured at an excitation wavelength (λex) of 330 nm and a fluorescence wavelength (λem) of 380 nm or at an excitation wavelength (λex) of 390 nm and a fluorescence wavelength (λem) of 460 nm. The final concentration of His-Set7/9 during the measurement of fluorescence intensity was 0 μg/μL or 0.05 μg/μL.

Measured: pIC50

CN1C(=O)[C@]23CC4=CC=C[C@H](O)[C@H]4N2C(=O)[C@@]1(CO)SS3 [gliotoxin]
< 4.00: Example 8, Ac-p53 (369-372)-MCA, AMC fluorescence λex 390 nm/λem 460 nm, FIG. 18, read-out: IC50 for Set9 | Example 14, Ac-ERα(299-302)-MCA, AMC fluorescence λex 390 nm/λem 460 nm, left panel, read-out: IC50 for His-Set7/9 | Example 14, Ac-ERα(299-302)-MCA, peptidyl MCA fluorescence λex 330 nm/λem 380 nm, right panel of FIG. 28, read-out: IC50 for His-Set7/9
